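Cultured in 96-well plates, cells were exposed to test compound for 48 hours across five concentrations. GI50 marks 50% less growth. TGI: concentration producing complete growth inhibition.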
Key:
Experiment in all cases: growth of human tumour cells (NCI), 48 h
OVCAR-4 ovarian = test system: OVCAR-4 ovarian
MDA-N = test system: MDA-N
UO-31 renal = test system: UO-31 renal
MALME-3M melanoma = test system: MALME-3M melanoma
OVCAR-3 ovarian = test system: OVCAR-3 ovarian
ACHN renal = test system: ACHN renal
DU-145 prostate = test system: DU-145 prostate
NCI-H23 lung = test system: NCI-H23 lung
SK-MEL-28 melanoma = test system: SK-MEL-28 melanoma
SF-539 CNS = test system: SF-539 CNS

| SMILES | TGI (OVCAR-4 ovarian) | TGI (MDA-N) | TGI (UO-31 renal) | TGI (MALME-3M melanoma) | TGI (OVCAR-3 ovarian) | TGI (ACHN renal) | TGI (DU-145 prostate) | TGI (NCI-H23 lung) | TGI (SK-MEL-28 melanoma) | TGI (SF-539 CNS) | GI50 (OVCAR-3 ovarian) | GI50 (OVCAR-4 ovarian) | GI50 (UO-31 renal) | GI50 (SF-539 CNS) | GI50 (ACHN renal) | GI50 (DU-145 prostate) | GI50 (NCI-H23 lung) | GI50 (SK-MEL-28 melanoma) |
| --- | --- | --- | --- | --- | --- | --- | --- | --- | --- | --- | --- | --- | --- | --- | --- | --- | --- | --- |
| Cc1cc(NS(=O)(=O)c2ccc(Nc3c4ccccc4nc4c(C(=O)NC(CO)(CO)CO)cccc34)cc2)no1 | > 100 µM | > 100 µM | > 100 µM | 92.2 µM | > 100 µM | > 100 µM | > 100 µM | > 100 µM | > 100 µM | – | – | – | – | – | – | – | – | – |
| Oc1c(NCn2nc(CCCCCCCCc3nn(CNc4ccc5ccccc5c4O)c(=S)o3)oc2=S)ccc2ccccc12 | > 100 µM | 48.5 µM | > 100 µM | > 100 µM | – | > 100 µM | > 100 µM | > 100 µM | > 100 µM | – | – | – | – | – | – | – | – | – |
| NCCCNCCSP(=O)(O)O | > 750 µM | – | > 750 µM | > 726 µM | > 750 µM | – | – | > 750 µM | > 750 µM | > 750 µM | – | – | – | – | – | – | – | – |
| Cc1ccc(N2Cc3c(ccc4ccccc34)OP2(=S)N2CCCC2)cc1 (stereo not given) | > 100 µM | – | > 100 µM | > 100 µM | > 55.7 µM | – | – | > 100 µM | > 100 µM | > 100 µM | – | – | – | – | – | – | – | – |
| CN1COCN=C1NC#N | > 100 µM | – | > 100 µM | > 100 µM | > 100 µM | > 100 µM | – | – | > 100 µM | > 100 µM | – | – | – | – | – | – | – | – |
| COC(=O)c1c(CC(=O)OC(C)C)cc2n(c1=O)Cc1c-2nc2ccccc2c1OC | > 100 µM | – | > 100 µM | > 100 µM | > 100 µM | > 100 µM | – | > 100 µM | > 100 µM | – | – | – | – | – | – | – | – | – |
| Cc1noc(-c2ccc(C(=O)O)[nH]2)c1Br | > 100 µM | > 100 µM | > 100 µM | > 100 µM | > 100 µM | > 100 µM | > 100 µM | > 100 µM | > 100 µM | – | – | – | – | – | – | – | – | – |
| O=C(O)C12C=CC(C1)c1ccccc12 (stereo not given) | > 100 µM | – | > 100 µM | > 100 µM | > 100 µM | > 100 µM | – | > 100 µM | > 100 µM | – | – | – | – | – | – | – | – | – |
| CSCSCC(CO)NC(=O)/C=C\c1c(C)[nH]c(=O)[nH]c1=O (stereo not given) | 13.4 µM | – | 126 µM | 76.6 µM | 14 µM | – | – | 120 µM | 219 µM | 192 µM | 1.41 µM | – | – | – | – | – | – | – |
| C/C(=N\Nc1nc2cc(F)ccc2s1)c1ccccn1 | 3.32 µM | – | 0.314 µM | 23 µM | 5.45 µM | 1.35 µM | > 100 µM | 2.23 µM | > 100 µM | > 23.4 µM | – | – | – | – | – | – | – | – |
| COc1c(NC(C)=O)c2ccccc2c2ccccc12 | > 100 µM | > 100 µM | > 100 µM | > 100 µM | > 100 µM | > 100 µM | > 100 µM | > 100 µM | > 100 µM | – | – | – | – | – | – | – | – | – |
| COc1ccc(-c2nc(-c3cnccn3)n(C/C=C/c3ccccc3)n2)cc1 | 98.6 µM | > 100 µM | > 100 µM | – | > 100 µM | – | > 100 µM | > 100 µM | > 100 µM | > 100 µM | – | – | – | – | – | – | – | – |
| C=C1c2nc3ccccc3n2C=C(c2ccccc2)N1c1ccc(C)cc1 | > 100 µM | – | > 100 µM | > 100 µM | > 100 µM | > 100 µM | > 100 µM | > 100 µM | – | > 100 µM | – | – | – | – | – | – | – | – |
| C=CC(C)(C)/C(=C\CO[Si](C(C)C)(C(C)C)C(C)C)C(=O)N(C)c1ccccc1I | 68.1 µM | 33.6 µM | 25.9 µM | – | 26.2 µM | 25.8 µM | 29.4 µM | 23.6 µM | 29.4 µM | 33 µM | – | – | – | – | – | – | – | – |
| COc1cc(/C=C2\N=C(c3ccccc3)N(c3cc4cc(Sc5ccccc5)ccc4[nH]3)C2=O)ccc1O | > 50 µM | – | > 50 µM | > 50 µM | – | > 50 µM | > 50 µM | > 50 µM | > 50 µM | > 50 µM | – | – | – | – | – | – | – | – |
| COc1cccc(C2C(C#N)=C(N)Oc3cc(OCCCCCC[P+](c4ccccc4)(c4ccccc4)c4ccccc4)ccc32)c1 (stereo not given) | 1.51 µM | – | 4.69 µM | – | 1.37 µM | 4.92 µM | 2.21 µM | 2.83 µM | 1.69 µM | 2.12 µM | 0.382 µM | 0.384 µM | 1.91 µM | 0.745 µM | 2.04 µM | 0.95 µM | 0.624 µM | 0.477 µM |
| O=c1[nH]c(=S)[nH]c2c1CCCN2 | – | – | > 100 µM | > 100 µM | > 100 µM | > 100 µM | – | > 100 µM | > 100 µM | – | – | – | – | – | – | – | – | – |
| COC1CCC(CO)OO1 (stereo not given) | > 100 µM | – | > 100 µM | > 100 µM | 80.5 µM | > 100 µM | – | > 100 µM | > 100 µM | > 100 µM | – | – | – | – | – | – | – | – |
